Test: reactivity of the drug under the curing conditions of the EMR
Format: physicochemical
Conditions: mixed with dextramate, PEGDA and Irgacure, cured for 10 minutes
Protocol: Dextramate (24.2 mL of a 23.1 w/w % solution), PEGDA (16.3 mL of a 8.6 w/w % solution), Irgacure (14 mL of a 0.5 w/w % solution), and valsartan (2.82 mL or 1.41 mL of a 24.8 w/w % solution or 2.82 mL of a 1:10 dilution of a 24.8 w/w % solution) are mixed together. The mixture is cured for 10 minutes. After curing, 100 mL of dH2O is added to the cured product to create a swelled gel.

- reactivity under the curing conditions: does not exhibit reactivity
Compound: CCCCC(=O)N(Cc1ccc(-c2ccccc2-c2nnn[nH]2)cc1)[C@H](C(=O)O)C(C)C [valsartan]

Source: patent publication US20210069375A1, “Extracellular Matrices, Uses thereof, and Method for Making Extracellular Matrices” (Gemstone Biotherapeutics LLC, priority 2017, published 2021)
